Target: T1, full-length ATR (Homo sapiens, UniProt Q13535)
T1 construct: Assays were carried out at 25° C. in the presence of 5 nM full-length ATR
Assay: ATR Inhibition Assay (radioactive-phosphate incorporation)
Type: biochemical
Settings: Ki(app); 5 nM full-length ATR, 10 μM [γ-33P]ATP, 800 μM target peptide, 25° C.
Procedure: Compounds were screened for their ability to inhibit ATR kinase using a radioactive-phosphate incorporation assay. Assays were carried out in a mixture of 50 mM Tris/HCl (pH 7.5), 10 mM MgCl2 and 1 mM DTT. Final substrate concentrations were 10 μM [γ-33P]ATP (3mCi 33P ATP/mmol ATP, Perkin Elmer) and 800 μM target peptide (ASELPASQPQPFSAKKK).
Assays were carried out at 25° C. in the presence of 5 nM full-length ATR. An assay stock buffer solution was prepared containing all of the reagents listed above, with the exception of ATP and the test compound of interest. 13.5 μL of the stock solution was placed in a 96 well plate followed by addition of 2 μL of DMSO stock containing serial dilutions of the test compound (typically starting from a final concentration of 15 μM with 3-fold serial dilutions) in duplicate (final DMSO concentration 7%). The plate was pre-incubated for 10 minutes at 25° C. and the reaction initiated by addition of 15 μL [γ-33P]ATP (final concentration 10 μM).
The reaction was stopped after […] by the addition of 30 μL 0.1M phosphoric acid containing 2 mM ATP. A multiscreen phosphocellulose filter 96-well plate (Millipore, Cat no. MAPHN0B50) was pretreated with 100 μL 0.2M phosphoric acid prior to the addition of 45 μL of the stopped assay mixture. The plate was washed with 5×200 μL 0.2M phosphoric acid. After drying, 100 μL Optiphase ‘SuperMix’ liquid scintillation cocktail (Perkin Elmer) was added to the well prior to scintillation counting (1450 Microbeta Liquid Scintillation Counter, Wallac).
After removing mean background values for all of the data points, Ki(app) data were calculated from non-linear regression analysis of the initial rate data using the Prism software package (GraphPad Prism version 3.0cx for Macintosh, GraphPad Software, San Diego Calif., USA).

T1 sequence (Q13535 whole entry): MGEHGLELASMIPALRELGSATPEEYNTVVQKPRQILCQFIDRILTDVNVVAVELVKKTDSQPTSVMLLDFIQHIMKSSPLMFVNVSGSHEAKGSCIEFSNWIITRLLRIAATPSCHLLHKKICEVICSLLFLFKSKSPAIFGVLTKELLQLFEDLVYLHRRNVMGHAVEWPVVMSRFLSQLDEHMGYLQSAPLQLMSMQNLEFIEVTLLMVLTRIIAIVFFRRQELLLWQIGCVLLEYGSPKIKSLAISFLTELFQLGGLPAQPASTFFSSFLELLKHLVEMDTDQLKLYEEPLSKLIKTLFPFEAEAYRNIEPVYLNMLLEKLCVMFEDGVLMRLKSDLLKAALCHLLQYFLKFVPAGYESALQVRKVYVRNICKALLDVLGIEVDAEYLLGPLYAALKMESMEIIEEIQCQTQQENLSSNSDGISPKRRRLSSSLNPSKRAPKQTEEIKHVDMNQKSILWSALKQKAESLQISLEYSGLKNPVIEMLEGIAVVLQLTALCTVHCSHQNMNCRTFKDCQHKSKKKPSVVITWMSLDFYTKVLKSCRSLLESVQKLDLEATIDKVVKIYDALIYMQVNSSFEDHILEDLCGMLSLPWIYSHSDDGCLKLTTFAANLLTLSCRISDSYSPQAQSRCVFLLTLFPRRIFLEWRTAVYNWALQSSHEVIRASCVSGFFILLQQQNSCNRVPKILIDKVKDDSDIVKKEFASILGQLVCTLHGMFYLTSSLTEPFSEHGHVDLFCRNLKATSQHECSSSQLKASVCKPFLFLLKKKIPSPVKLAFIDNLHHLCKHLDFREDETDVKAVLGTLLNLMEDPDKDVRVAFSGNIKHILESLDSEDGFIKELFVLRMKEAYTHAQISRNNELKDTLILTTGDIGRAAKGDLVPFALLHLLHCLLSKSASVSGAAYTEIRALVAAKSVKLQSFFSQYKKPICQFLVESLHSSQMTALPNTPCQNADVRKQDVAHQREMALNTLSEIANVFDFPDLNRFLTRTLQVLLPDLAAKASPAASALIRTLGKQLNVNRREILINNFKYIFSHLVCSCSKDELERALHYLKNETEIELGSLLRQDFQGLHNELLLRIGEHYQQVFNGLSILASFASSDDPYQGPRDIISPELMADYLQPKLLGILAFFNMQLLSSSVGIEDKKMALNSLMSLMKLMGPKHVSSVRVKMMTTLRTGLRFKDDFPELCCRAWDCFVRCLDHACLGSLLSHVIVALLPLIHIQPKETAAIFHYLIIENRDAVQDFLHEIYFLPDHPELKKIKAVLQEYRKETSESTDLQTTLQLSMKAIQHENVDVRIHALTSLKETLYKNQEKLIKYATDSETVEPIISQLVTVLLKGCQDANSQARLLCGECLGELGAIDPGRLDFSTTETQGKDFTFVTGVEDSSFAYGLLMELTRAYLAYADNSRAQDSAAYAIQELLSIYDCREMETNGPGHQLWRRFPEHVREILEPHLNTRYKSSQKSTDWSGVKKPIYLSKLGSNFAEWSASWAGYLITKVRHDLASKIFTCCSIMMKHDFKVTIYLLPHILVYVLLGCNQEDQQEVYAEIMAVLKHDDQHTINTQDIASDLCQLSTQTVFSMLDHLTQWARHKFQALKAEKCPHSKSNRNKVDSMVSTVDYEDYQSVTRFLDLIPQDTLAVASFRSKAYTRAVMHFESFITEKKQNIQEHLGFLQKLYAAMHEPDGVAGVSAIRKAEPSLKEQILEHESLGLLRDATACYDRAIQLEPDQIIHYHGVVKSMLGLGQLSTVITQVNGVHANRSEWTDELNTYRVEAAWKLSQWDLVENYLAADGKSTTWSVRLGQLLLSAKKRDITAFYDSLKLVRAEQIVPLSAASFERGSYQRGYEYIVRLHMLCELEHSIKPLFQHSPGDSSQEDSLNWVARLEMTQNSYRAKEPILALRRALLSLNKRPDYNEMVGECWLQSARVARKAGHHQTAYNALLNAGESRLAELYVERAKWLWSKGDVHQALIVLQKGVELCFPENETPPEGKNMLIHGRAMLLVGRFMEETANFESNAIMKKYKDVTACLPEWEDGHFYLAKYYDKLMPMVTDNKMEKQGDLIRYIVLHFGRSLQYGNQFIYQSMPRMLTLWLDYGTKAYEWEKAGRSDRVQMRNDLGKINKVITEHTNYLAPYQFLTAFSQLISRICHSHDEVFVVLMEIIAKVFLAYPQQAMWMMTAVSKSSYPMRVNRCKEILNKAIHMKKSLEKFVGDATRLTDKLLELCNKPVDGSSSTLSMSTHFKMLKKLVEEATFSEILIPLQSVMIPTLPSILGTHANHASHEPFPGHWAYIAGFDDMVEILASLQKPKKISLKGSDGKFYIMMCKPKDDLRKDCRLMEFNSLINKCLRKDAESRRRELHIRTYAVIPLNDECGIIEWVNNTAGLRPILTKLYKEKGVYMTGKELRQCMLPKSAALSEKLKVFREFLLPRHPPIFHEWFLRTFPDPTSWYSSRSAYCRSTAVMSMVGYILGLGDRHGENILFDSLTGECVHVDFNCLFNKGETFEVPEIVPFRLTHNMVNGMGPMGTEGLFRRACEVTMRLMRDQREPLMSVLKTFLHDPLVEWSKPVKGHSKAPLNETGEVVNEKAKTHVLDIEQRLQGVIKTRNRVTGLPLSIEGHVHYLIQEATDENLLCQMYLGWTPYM

SMILES | Ki [nM]
CC(C)S(=O)(=O)c1ccc(-c2cnc3[nH]cc(NC(=O)c4cncs4)c3n2)cc1 [Compound I-34, N-[2-(4-isopropylsulfonylphenyl)-5H-pyrrolo[2,3-b]pyrazin-7-yl]thiazole-5-carboxamide] | 10 to 100
CC(C)S(=O)(=O)c1ccc(-c2cnc3[nH]cc(NC(=O)C4CCNCC4)c3n2)cc1 [Compound I-35, N-[2-(4-isopropylsulfonylphenyl)-5H-pyrrolo[2,3-b]pyrazin-7-yl]piperidine-4-carboxamide] | 10 to 100
CC(C)S(=O)(=O)c1ccc(-c2cnc3[nH]cc(NC(=O)C4CCOC4)c3n2)cc1 (stereo not shown) [Compound I-36, N-[2-(4-isopropylsulfonylphenyl)-5H-pyrrolo[2,3-b]pyrazin-7-yl]tetrahydrofuran-3-carboxamide] | 100 to 500
CC(C)S(=O)(=O)c1ccc(-c2cnc3[nH]cc(NC(=O)CC#N)c3n2)cc1 [Compound I-37, 2-cyano-N-[2-(4-isopropylsulfonylphenyl)-5H-pyrrolo[2,3-b]pyrazin-7-yl]acetamide] | 10 to 100
CC(C)S(=O)(=O)c1ccc(-c2cnc3[nH]cc(NC(=O)Cc4nnn[nH]4)c3n2)cc1 [Compound I-38, N-[2-(4-isopropylsulfonylphenyl)-5H-pyrrolo[2,3-b]pyrazin-7-yl]-2-(1H-tetrazol-5-yl)acetamide] | 10 to 100
CC(C)S(=O)(=O)c1ccc(-c2cnc3[nH]cc(NC(=O)COc4ccccc4)c3n2)cc1 [Compound I-39, N-[2-(4-isopropylsulfonylphenyl)-5H-pyrrolo[2,3-b]pyrazin-7-yl]-2-phenoxy-acetamide] | 100 to 500
CC(C)S(=O)(=O)c1ccc(-c2cnc3[nH]cc(NC(=O)c4ccccn4)c3n2)cc1 [Compound I-40, N-[2-(4-isopropylsulfonylphenyl)-5H-pyrrolo[2,3-b]pyrazin-7-yl]pyridine-2-carboxamide] | 10 to 100
CC(C)S(=O)(=O)c1ccc(-c2cnc3[nH]cc(NC(=O)c4ccc(N5CC[C@@H](N)C5)cc4)c3n2)cc1 [Compound I-41, 4-[(3R)-3-aminopyrrolidin-1-yl]-N-[2-(4-isopropylsulfonylphenyl)-5H-pyrrolo[2,3-b]pyrazin-7-yl]benzamide] | ≤ 10
CC(C)S(=O)(=O)c1ccc(-c2cnc3[nH]cc(NC(=O)c4ccc(N5CCC[C@H](N)C5)cc4)c3n2)cc1 [Compound I-42, 4-[(3S)-3-amino-1-piperidyl]-N-[2-(4-isopropylsulfonylphenyl)-5H-pyrrolo[2,3-b]pyrazin-7-yl]benzamide] | 10 to 100
CC(C)S(=O)(=O)c1ccc(-c2cnc3[nH]cc(NC(=O)Nc4ccccc4)c3n2)cc1 [Compound I-43, 1-[2-(4-isopropylsulfonylphenyl)-5H-pyrrolo[2,3-b]pyrazin-7-yl]-3-phenyl-urea] | 10 to 100
